# Data published in patent publication US5462935A, “Cephalosporin compounds” (Lucky Limited, priority 1990, dated 1995).
# Like-named read-outs stand apart in the source and are kept apart here.
# Assays:
# [1] = tested on: Pseudomonas aerugionsa ATCC 10145; assay: minimal inhibitory concentration, two-fold agar dilution; format: cell-based; conditions: ATCC10145, Muller-Hinton agar, 37° C., 20 hours
# Method: (§1) These NIC values were taken by employing a two-fold dilution method: that is, two-fold serial dilutions of each of the test compounds were made and dispersed in a Muller-Hinton agar medium; 2 μl of the standard test strain which had the 10^7 CFU (Colony Forming Unit) per ml was inoculated on the medium; and these were incubated at 37° C. for 20 hours.
# [2] = tested on: Escherichia coli ATCC 25922; assay: as above; format: cell-based; conditions: ATCC25922, Muller-Hinton agar, 37° C., 20 hours
# Method: as §1
# [3] = tested on: Enterobacter cloacae ATCC 27508; assay: as above; format: cell-based; conditions: ATCC27508, Muller-Hinton agar, 37° C., 20 hours
# Method: as §1
# [4] = tested on: Proteus mirabilis ATCC 25933; assay: as above; format: cell-based; conditions: ATCC25933, Muller-Hinton agar, 37° C., 20 hours
# Method: as §1
# [5] = tested on: Micrococcus luteus ATCC 9341; assay: as above; format: cell-based; conditions: ATCC9341, Muller-Hinton agar, 37° C., 20 hours
# Method: as §1
# [6] = tested on: Klebsiella pneumoniae ATCC 10031; assay: as above; format: cell-based; conditions: ATCC10031, Muller-Hinton agar, 37° C., 20 hours
# Method: as §1
# [7] = tested on: Pseudomonas aeruginosa ATCC 25619; assay: as above; format: cell-based; conditions: ATCC25619, Muller-Hinton agar, 37° C., 20 hours
# Method: as §1
# [8] = tested on: Shigella sonnei ATCC 11060; assay: as above; format: cell-based; conditions: ATCC11060, Muller-Hinton agar, 37° C., 20 hours
# Method: as §1
# [9] = tested on: Citrobacter freundii ATCC 8090; assay: as above; format: cell-based; conditions: ATCC8090, Muller-Hinton agar, 37° C., 20 hours
# Method: as §1
# [10] = tested on: Bacillus cereus ATCC 11778; assay: as above; format: cell-based
# Method: as §1
# [11] = tested on: Streptococcus faecalis ATCC 29212; assay: as above; format: cell-based; conditions: Enterococcus faecalis, ATCC29212, Muller-Hinton agar, 37° C., 20 hours
# Method: as §1
# [12] = tested on: Enterobacter aerogenes ATCC 29751; assay: as above; format: cell-based; conditions: Klebsiella aerogenes
# Method: as §1
# [13] = tested on: Proteus vulgaris ATCC 6059; assay: as above; format: cell-based; conditions: ATCC6059, Muller-Hinton agar, 37° C., 20 hours
# Method: as §1
# [14] = tested on: Shigella flexneri ATCC 11836; assay: as above; format: cell-based; conditions: ATCC11836, Muller-Hinton agar, 37° C., 20 hours
# Method: as §1
# [15] = tested on: Pseudomonas aerugionsa ATCC 27853; assay: as above; format: cell-based; conditions: ATCC27853, Muller-Hinton agar, 37° C., 20 hours
# Method: as §1
# [16] = tested on: Salmonella typhimurium ATCC 14028; assay: as above; format: cell-based; conditions: Salmonella enterica, Muller-Hinton agar, 37° C., 20 hours
# Method: as §1
# [17] = tested on: Bacillus megaterium ATCC 9885; assay: as above; format: cell-based; conditions: Priestia megaterium
# Method: as §1
# [18] = tested on: ATCC 12228; assay: as above; format: cell-based; conditions: Staphylococcus faecalis, ATCC12228, 20 h
# Method: as §1
# [19] = tested on: Staphylococcus epidermidis ATCC 10537; assay: as above; format: cell-based; conditions: ATCC10537, Muller-Hinton agar, 37° C., 20 hours
# Method: as §1
# [20] = tested on: Providencia rettgeri ATCC 9250; assay: as above; format: cell-based; conditions: ATCC9250, Muller-Hinton agar, 37° C., 20 hours
# Method: as §1
# [21] = tested on: Escherichia coli ATCC 10536; assay: as above; format: cell-based; conditions: ATCC10536, Muller-Hinton agar, 37° C., 20 hours
# Method: as §1
# [22] = tested on: Acinetobacter calcoaceticus ATCC 15473; assay: as above; format: cell-based; conditions: ATCC15473, Muller-Hinton agar, 37° C., 20 hours
# Method: as §1
# [23] = tested on: Staphylococcus aureus ATCC 6638p; assay: as above; format: cell-based; conditions: ATCC6638P, 20 h
# Method: as §1
# [24] = tested on: Serratia marcescens ATCC 27117; assay: as above; format: cell-based; conditions: ATCC27117, Muller-Hinton agar, 37° C., 20 hours
# Method: as §1
# [25] = acute toxicity test, intravenous; conditions: mouse, in vivo, ICR mice, observed for 14 days
# Excerpt: The results are shown in the last row of Table 2.
# [26] = tested on: Morganella morganii ATCC 8076h; assay: minimal inhibitory concentration, two-fold agar dilution; format: cell-based; conditions: ATCC8076H, 20 h
# Method: as §1
# [27] = in vivo absorbency test (plasma concentration, pharmacokinetic parameters); set-up: species or system SD rats (male); conditions: rat, in vivo, iv, 20 mg/kg
# Method: In addition to the in vitro tests described above, in vivo absorbency tests for the two selected compounds of formulas (I-S-1) and (I-R-1), along with Ceftadizime, were carried out by administering intravenously, in a dose of 20 mg/kg, each of these two compounds into SD rats (male) weighing 220 to 340 g; […], which were analyzed by employing the bio-assay or agar well method. About 10 to 15 rats were used for each of the compounds.
# Notes: (1) Two-Compartment Model
# (3) Tested Animal: Rats(male; 220-340 g)
# [28] = Bacillus cereus, ATCC11778, 20 h
Compound,MIC [1],MIC [2],MIC [3],MIC [4],MIC [5],MIC [6],MIC [7],MIC [8],MIC [9],MIC [11],MIC [13],MIC [14],MIC [15],MIC [16],MIC [18],MIC [19],MIC [20],MIC [22],MIC [23],MIC [24],other results
"Cc1c(N)nc(SCC2=C(C(=O)[O-])N3C(=O)C(NC(=O)/C(=N\O[C@@H](C)C(=O)O)c4csc(N)n4)[C@H]3SC2)[n+](N)c1N (stereo partly drawn) [I-S-7, 7-[(Z)-2-(2-aminothiazol-4-yl)-2-[(S)-1-carboxyeth-1-oxyimino]acetamido]-3-[(5-methyl-1,4,6-triaminopyrimidinium-2-yl)thiomethyl]-3-cephem-4-carboxylate]",1 µg/mL,0.016 µg/mL,≤ 0.008 µg/mL,0.016 µg/mL,0.25 µg/mL,0.016 µg/mL,0.5 µg/mL,0.031 µg/mL,0.016 µg/mL,> 128 µg/mL,0.016 µg/mL,0.016 µg/mL,0.5 µg/mL,0.063 µg/mL,1 µg/mL,2 µg/mL,≤ 0.008 µg/mL,2 µg/mL,4 µg/mL,0.063 µg/mL,"MIC ([10]; ATCC11778, Bacillus cereus ATCC 11778, Muller-Hinton agar, 37° C., 20 hours, read-out: MIC): 84 µg/mL; MIC ([12]; ATCC29751, Enterobacter aerogenes ATCC 29751, Muller-Hinton agar, 37° C., 20 hours, read-out: MIC): 0.15 µg/mL; MIC ([17]; ATCC9885, Bacillus megaterium ATCC 9885, Muller-Hinton agar, 37° C., 20 hours, read-out: MIC): 26 µg/mL; MIC [21]: 0.031 µg/mL; LD50 at 336 h [25]: > 5000 mg/kg"
"CC[n+]1c(N)cc(N)nc1SCC1=C(C(=O)[O-])N2C(=O)C(NC(=O)/C(=N\O[C@@H](C)C(=O)O)c3csc(N)n3)[C@H]2SC1 (stereo partly drawn) [I-S-3, 7[(Z)-2-(2-aminothiazol-4-yl)-2[(S)-1-carboxyeth-1-oxyimino]acetamido]-3-[(4,6-diamino-1-ethylpyrimidinium-2-yl)thiomethyl]-3-cephem-4-carboxylate]",2 µg/mL,0.031 µg/mL,≤ 0.008 µg/mL,0.031 µg/mL,0.25 µg/mL,0.031 µg/mL,1 µg/mL,0.063 µg/mL,0.031 µg/mL,> 128 µg/mL,0.031 µg/mL,0.016 µg/mL,1 µg/mL,0.13 µg/mL,1 µg/mL,1 µg/mL,≤ 0.008 µg/mL,4 µg/mL,2 µg/mL,0.063 µg/mL,"MIC [10, 28]: 32 µg/mL; MIC ([12]; ATCC29751, 20 h): 1 µg/mL; MIC ([17]; ATCC9885, 20 h): 0.25 µg/mL; MIC [26]: ≤ 0.008 µg/mL; MIC [21]: 0.031 µg/mL; LD50 at 336 h [25]: > 3000 mg/kg"
"C[C@H](O/N=C(\C(=O)NC1C(=O)N2C(C(=O)[O-])=C(CSc3nc(N)cc(N)[n+]3C)CS[C@H]12)c1csc(N)n1)C(=O)O (stereo partly drawn) [I-S-2, 7-[(Z)-2-(2-aminothiazol-4-yl)-2-[(S)-1-carboxyeth-1-oxyimino]acetamido]-3-[(4,6-diamino-1-methylpyrimidinium-2-yl)thiomethyl]-3-cephem-4-carboxylate]",1 µg/mL,0.016 µg/mL,≤ 0.008 µg/mL,0.016 µg/mL,0.13 µg/mL,0.016 µg/mL,1 µg/mL,0.031 µg/mL,0.016 µg/mL,> 128 µg/mL,0.016 µg/mL,≤ 0.008 µg/mL,0.5 µg/mL,0.13 µg/mL,1 µg/mL,1 µg/mL,≤ 0.008 µg/mL,2 µg/mL,2 µg/mL,0.031 µg/mL,"MIC [10, 28]: 32 µg/mL; MIC ([12]; ATCC29751, 20 h): 0.5 µg/mL; MIC ([17]; ATCC9885, 20 h): 0.25 µg/mL; MIC [21]: 0.031 µg/mL; LD50 at 336 h [25]: > 3000 mg/kg"
"Cc1c(N)nc(SCC2=C(C(=O)[O-])N3C(=O)C(NC(=O)/C(=N\O[C@H](C)C(=O)O)c4csc(N)n4)[C@H]3SC2)[n+](C)c1N (stereo partly drawn) [I-R-6, 7-[(Z)-2-(2-aminothiazol-4-yl)-2-[(R)-1-carboxyeth-1-oxyimino]acetamido]-3-[(4,6-diamino-1,5-dimethylpyrimidinium-2-yl)thiomethyl]-3-cephem-4-carboxylate]",2 µg/mL,0.13 µg/mL,0.016 µg/mL,0.031 µg/mL,0.5 µg/mL,0.063 µg/mL,2 µg/mL,0.063 µg/mL,0.063 µg/mL,> 128 µg/mL,0.063 µg/mL,0.031 µg/mL,2 µg/mL,0.13 µg/mL,2 µg/mL,2 µg/mL,≤ 0.008 µg/mL,4 µg/mL,4 µg/mL,0.13 µg/mL,"MIC [10, 28]: 128 µg/mL; MIC ([12]; ATCC29751, 20 h): 1 µg/mL; MIC [26]: ≤ 0.008 µg/mL; MIC [21]: 0.063 µg/mL; LD50 at 336 h [25]: > 3000 mg/kg"
"CC(C)(O/N=C(\C(=O)N[C@@H]1C(=O)N2C(C(=O)[O-])=C(C[n+]3ccccc3)CS[C@H]12)c1csc(N)n1)C(=O)O [CTZ, Ceftazidime, reference compound]",2 µg/mL,,0.031 µg/mL,0.063 µg/mL,0.5 µg/mL,0.063 µg/mL,1 µg/mL,0.13 µg/mL,0.13 µg/mL,> 128 µg/mL,0.063 µg/mL,0.063 µg/mL,1 µg/mL,0.25 µg/mL,4 µg/mL,8 µg/mL,,4 µg/mL,16 µg/mL,0.25 µg/mL,"MIC [10, 28]: 128 µg/mL; MIC ([12]; ATCC29751, 20 h): 4 µg/mL; MIC ([17]; ATCC9885, 20 h): 0.25 µg/mL; MIC [26]: ≤ 0.008 µg/mL; AUC [27]: 28100 ng·h/mL; concentration at 10 min [27]: 50000 ng/mL"
